According to patent US20250186448A1 (Mezzion Pharma Co., Ltd., priority 2021, published 2025):
Values joined by “and” are separate entries in the source; they are usually repeats but may differ in a detail not shown here. Equal entries are not always repeated. “Also recorded” adds a separate entry of the source.

Tested on: adolescents with Fontan physiology
Assay: FUEL trial: resting data and cardiopulmonary exercise test (CPET), cycle ergometer ramp protocol
Assay type: in vivo, human
Details: for Anaerobic threshold VE/VCO2 / Anaerobic threshold oxygen consumption / Anaerobic threshold work / Peak exercise heart rate / Peak exercise minute ventilation / Peak exercise oxygen consumption / Peak exercise oxygen saturation / Peak exercise respiratory rate / Peak exercise work rate / Resting diastolic blood pressure / Resting heart rate / Resting oxygen saturation / Resting systolic blood pressure: mean ± SD; for Resting oxygen saturation, change: p 0.002 vs placebo; for Resting diastolic blood pressure, change: p 0.003 vs placebo; for Anaerobic threshold VE/VCO2, change: p 0.011 vs placebo
Excerpt: Exercise testing can include assessment of VO2 values during maximal effort or at the ventilator anaerobic threshold (VAT). VO2 max, or maximal oxygen consumption, refers to the maximum amount of oxygen that an individual can utilize during intense exercise. This measurement is generally considered a reliable indicator of cardiovascular fitness and aerobic endurance. The more oxygen a person can use during high level exercise, the more energy that person can produce. This test has been the standard for cardiorespiratory fitness because muscles need oxygen for prolonged (aerobic) exercise; blood carries oxygen to the muscles and the heart must pump adequate amounts of blood to meet the demands of aerobic exercise.
VO2 is often measured by putting a mask on a subject, and measuring the volume and gas concentrations of inhaled and expired air. This measurement is often used in both clinical settings and research and is considered the most accurate. Testing commonly involves either exercising on a treadmill or riding a cycle ergometer at increasing intensity until exhaustion, and is designed to provide readings at a maximal effort of the subject and/or at the subject's anaerobic threshold.
Exercise testing can include assessment of VO2 values during maximal effort or at ventilator anaerobic threshold (“VAT”). VO2 max (“peak VO2”), or maximal (“peak”) oxygen consumption, refers to the maximum amount of oxygen that an individual can utilize during intense exercise. This measurement is generally considered a reliable indicator of cardiovascular fitness and aerobic endurance. Theoretically, the more oxygen a person can use during exercise, the more energy that person can produce. This test is often used for cardiorespiratory fitness because muscles need oxygen for prolonged (aerobic) exercise; blood carries oxygen to the muscles and the heart must pump adequate amounts of blood to meet the demands of aerobic exercise. However, while peak VO2 may be useful as a surrogate for many cardiovascular disease states, it may not be as relevant an endpoint after the Fontan operation. In this unique physiology, central venous pressure, rather than right ventricular contraction (pumping), is the primary driver of transpulmonary blood flow and, therefore, cardiac output. Gewillig M and Goldberg D J. Failure of the fontan circulation. Heart Fail Clin. 10(1):105-116 (January 2014); Egbe A C, Connolly H M, Miranda W R, Ammash N M, Hagler D J, Veldtman G R and Borlaug B A. Hemodynamics of Fontan Failure: The Role of Pulmonary Vascular Disease. Circ Heart Fail. 10(12): e004515 (September 2017); Gewillig M, Brown S C, Eyskens B, Heying R, Ganame J, Budts W, La Gerche A and Gorenflo M. The Fontan circulation: who controls cardiac output?Interact Cardiovasc Thorac Surg. 10(3):428-433 (March 2010); and Goldberg D J, Avitabile C M, McBride M G and Paridon S M. Exercise capacity in the Fontan circulation. Cardiol Young. 23(6):824-830 (December 2013). As the demand for cardiac output increases with exertion, central venous pressure in the Fontan circulation must rise to meet that demand, but eventually reaches a critical ceiling beyond which it can rise no further. Navaratnam D, Fitzsimmons S, Grocott M, Rossiter H B, Emmanuel Y, Diller G P, Gordon-Walker T, Jack S, Sheron N, Pappachan J, Pratap J N, Vettukattil J J and Veldtman G. Exercise-Induced Systemic Venous Hypertension in the Fontan Circulation. Am J Cardiol. 117(10):1667-1671 (May 15, 2016).
VO2 is often measured by putting a mask on a subject, and measuring the volume and gas concentrations of inhaled and expired air. This measurement is often used in both clinical settings and research and has been considered the most accurate. Testing commonly involves either exercising on a treadmill or riding a cycle ergometer at increasing intensity until exhaustion, and is designed to provide readings at a maximal effort of the subject and/or at the subject's anaerobic threshold. […]

[1] = 87.5 mg twice daily, Change baseline to 26-week
[2] = 87.5 mg twice daily, Change baseline to 26-week, listed as udenafil
[3] = 87.5 mg twice daily, baseline to 26-week

## CCCOc1ccc(S(=O)(=O)NCCC2CCCN2C)cc1-c1nc2c(CCC)nn(C)c2c(=O)[nH]1 (stereo not drawn) [Udenafil, udenafil]
87.5 mg twice daily
  Multiple measures of exercise performance at the ventilatory anaerobic threshold, udenafil vs placebo: statistically significant improvements
87.5 mg twice daily, 26-week
  Anaerobic threshold VE/VCO2: 33.6 ± 4.8
  Anaerobic threshold oxygen consumption: 1059 ± 292 mL/min
  Anaerobic threshold work: 69.2 ± 26 W
  Peak exercise heart rate: 165 ± 20 bpm
  Peak exercise minute ventilation: 73 ± 22 L/min
  Peak exercise oxygen consumption: 1606 ± 452 mL/min
  Peak exercise oxygen saturation: 89.6 ± 4.9%
  Peak exercise respiratory rate: 50 ± 12 breaths/min
  Peak exercise work rate: 124 ± 32 W
  Resting diastolic blood pressure: 65.3 ± 9.9 mmHg
  Resting heart rate: 86.6 ± 15.4 bpm
  Resting oxygen saturation: 93.3 ± 3.5%
  Resting systolic blood pressure: 110.5 ± 12.0 mmHg
87.5 mg twice daily, Baseline
  Anaerobic threshold VE/VCO2: 34.3 ± 4.9
  Anaerobic threshold oxygen consumption: 1039 ± 301 mL/min
  Anaerobic threshold work: 66.2 ± 26 W
  Peak exercise heart rate: 165 ± 20 bpm
  Peak exercise minute ventilation: 71 ± 21 L/min
  Peak exercise oxygen consumption: 1562 ± 437 mL/min
  Peak exercise oxygen saturation: 89.2 ± 5.3%
  Peak exercise respiratory rate: 51 ± 11 breaths/min
  Peak exercise work rate: 120 ± 32 W
  Resting diastolic blood pressure: 68.4 ± 9.5 mmHg
  Resting heart rate: 87.5 ± 15.3 bpm
  Resting oxygen saturation: 92.8 ± 3.9%
  Resting systolic blood pressure: 112.3 ± 12.1 mmHg
[1]
  Resting oxygen saturation, change: 0.5 ± 2.4%
  Resting diastolic blood pressure, change: −2.9 ± 9.7 mmHg
  Anaerobic threshold VE/VCO2, change: −0.76 ± 3.6^
[2]
  Resting oxygen saturation, change: +0.5%
  Resting diastolic blood pressure, change: −2.9 mmHg
  Anaerobic threshold VE/VCO2, change: −0.8
87.5 mg twice daily, Change baseline to 26-week, p 0.023 vs placebo
  Anaerobic threshold oxygen consumption (VO2 at VAT), change: 29.7 ± 177 mL/min
87.5 mg twice daily, Change baseline to 26-week, p 0.029 vs placebo
  Anaerobic threshold work (work rate at VAT), change: 3.5 ± 15 W
87.5 mg twice daily, Change baseline to 26-week, p 0.071 vs placebo
  Peak exercise oxygen consumption (peak VO2, VO2 max), change: 44 ± 245 mL/min
87.5 mg twice daily, Change baseline to 26-week, p 0.18 vs placebo
  Resting systolic blood pressure, change: −1.8 ± 12.2 mmHg
87.5 mg twice daily, Change baseline to 26-week, p 0.78 vs placebo
  Resting heart rate, change: −0.9 ± 12.7 bpm
87.5 mg twice daily, Change baseline to 26-week, p 0.85 vs placebo
  Peak exercise work rate, change: 3.2 ± 14 W
[3]
  VE/VCO2 measured at VAT, decreased by, percent: 2.1%
  Work rate at VAT improved by, percent: 5.5% and 5.2%
Baseline to 26-week
  Change in resting heart rate, respiratory rate, or systolic blood pressure, udenafil vs placebo: no difference
  Diastolic blood pressure in the udenafil group, in words: small but statistically significant decrease
  Resting oxygen saturation in the udenafil group, in words: small but statistically significant increase
p=0.071
  Oxygen consumption at peak exercise (peak VO2), difference udenafil vs placebo: did not reach statistical significance; also recorded: not associated with a statistically significant improvement
